# Laboratory results as given in US7238697B2, “Pyridylpyrimidines for use as pesticides” (Bayer CropScience AG, priority 2001, dated 2007).
# Experiment: log P determination by HPLC (reversed-phase C18), EEC Directive 79/831 Annex V.A8
# Format: physicochemical
# Details: pH 2.3
# Experimental: The stated log P values were determined in accordance with EEC Directive 79/831 Annex V.A8 by HPLC (High Performance Liquid Chromatography) using a reversed-phase column, (C 18). Temperature: 43° C. Mobile phases for the determination in the acidic range: 0.1% aqueous phosphoric acid, acetonitrile; linear gradient from 10% acetonitrile to 90% acetonitrile. Calibration was carried out using unbranched alkan-2-ones (having 3 to 16 carbon atoms) with known logP values (determination of the logP values by the retention times using linear interpolation between two successive alkanones).
row,SMILES,chromatographic logP
1,NC(=O)OCCOC(=O)CSc1nccc(-c2ccccn2)n1 [Example 177],1.41

# Same assay, conditions: pH 2.3; HPLC, reversed-phase C 18, 43° C., 0.1% aqueous phosphoric acid/acetonitrile; read-out: log P (pH 2.3)
row,SMILES,chromatographic logP
1,O=C(CSc1nccc(-c2ccccn2)n1)OCC(F)(F)C(F)(F)C(F)(F)F [Example 119],3.37

# Same assay, conditions: reversed-phase C18 HPLC column; pH 2.3; HPLC, reversed-phase C 18, 43° C., 0.1% aqueous phosphoric acid/acetonitrile; read-out: log P (pH 2.3)
row,chromatographic logP,SMILES
1,3.11,COC(=O)CSc1nc(-c2ccccn2)cc(C(C)C)n1 [Example 112]
2,2.55,CCOC(=O)C(F)Sc1nccc(-c2ccccn2)n1 (stereo not shown) [Example 113]
3,3.34,COC(=O)CSc1nc(-c2ccccn2)cc(C(F)(F)F)n1 [Example 114]
4,3.3,CCOC(=S)CSc1nccc(-c2ccccn2)n1 [Example 115]
5,2.25,O=C(CSc1nccc(-c2ccccn2)n1)OCC(F)F [Example 116]
6,2.69,O=C(CSc1nccc(-c2ccccn2)n1)OCC(F)(F)F [Example 117]
7,3.24,O=C(CSc1nccc(-c2ccccn2)n1)OCC(F)(F)C(F)(F)F [Example 118]
8,3.59,O=C(CSc1nccc(-c2ccccn2)n1)OC(C(F)(F)F)C(F)(F)F [Example 120]
9,3.06,CC(OC(=O)CSc1nccc(-c2ccccn2)n1)C(F)(F)F (stereo not shown) [Example 121]
10,2.26,O=C(CSc1nccc(-c2ccccn2)n1)OCCC(F)(F)F [Example 122]
11,2.78,O=C(CSc1nccc(-c2ccccn2)n1)OCC(Cl)Cl [Example 123]
12,2.31,O=C(CSc1nccc(-c2ccccn2)n1)OCc1ccc(Cl)nc1 [Example 124]
13,3.31,O=C(CSc1nccc(-c2ccccn2)n1)OCC(Cl)(Cl)Cl [Example 125]
14,2.29,O=C(CSc1nccc(-c2ccccn2)n1)OCCCl [Example 126]
15,1.76,O=C(CSc1nccc(-c2ccccn2)n1)OC1COCOC1 [Example 127]
16,2.5,CCOC(=O)CSc1nccc(-c2ccc(C)cn2)n1 [Example 128]
17,2.51,CC(C)(C)C(=O)OCCNC(=O)NCCCOC(=O)CSc1nccc(-c2ccccn2)n1 [Example 129]
18,3.51,CC(C)(C)c1ccc(NC(=O)NCCCOC(=O)CSc2nccc(-c3ccccn3)n2)cc1 [Example 130]
19,3.45,CC(C)COC(=O)c1cccc(NC(=O)NCCCOC(=O)CSc2nccc(-c3ccccn3)n2)c1 [Example 131]
20,3.06,O=C(NCCCOC(=O)CSc1nccc(-c2ccccn2)n1)Nc1cccc2c1CCCC2 [Example 133]
21,0.43,NNC(=O)CSc1nccc(-c2ccccn2)n1 [Example 134]

row,chromatographic logP,SMILES
1,2.23,O=C(CSc1nccc(-c2ccccn2)n1)N/N=C/c1ccc([N+](=O)[O-])cc1 [Example 135]
2,0.44,CC(C)=NNC(=O)CSc1nccc(-c2ccccn2)n1 [Example 136]
3,3.22,O=C(CSc1nccc(-c2ccccn2)n1)NCc1cc(C(F)(F)F)cc(C(F)(F)F)c1 [Example 137]
4,2.92,O=C(CSc1nccc(-c2ccccn2)n1)NCc1ccccc1SC(F)(F)F [Example 138]
5,3.2,O=C(NCCCOC(=O)CSc1nccc(-c2ccccn2)n1)Nc1ccc(Cl)cc1Cl [Example 139]
6,1.13,CS(=O)(=O)NC(=O)CSc1nccc(-c2ccccn2)n1 [Example 140]
7,2.63,CC(C)(C)OC(=O)NCCOC(=O)CSc1nccc(-c2ccccn2)n1 [Example 141]
8,2.79,CC(C)(C)OC(=O)NCCCOC(=O)CSc1nccc(-c2ccccn2)n1 [Example 142]
9,2.3,N#Cc1ccc(NC(=O)NCCOC(=O)CSc2nccc(-c3ccccn3)n2)cc1 [Example 146]
10,3.04,O=C(NCCOC(=O)CSc1nccc(-c2ccccn2)n1)Nc1ccc(C(F)(F)F)cc1 [Example 147]
11,3.35,CC(C)(C)c1ccc(NC(=O)NCCOC(=O)CSc2nccc(-c3ccccn3)n2)cc1 [Example 148]
12,3.01,CC(C)COC(=O)c1cccc(NC(=O)NCCOC(=O)CSc2nccc(-c3ccccn3)n2)c1 [Example 149]
13,4.95,CCOC(=O)c1cc(NC(=O)NCCOC(=O)CSc2nccc(-c3ccccn3)n2)ccc1Cl [Example 150]
14,2.94,O=C(NCCOC(=O)CSc1nccc(-c2ccccn2)n1)Nc1cccc2c1CCCC2 [Example 151]
15,2.45,N#Cc1ccc(NC(=O)NCCCOC(=O)CSc2nccc(-c3ccccn3)n2)cc1 [Example 152]
16,3.2,O=C(NCCCOC(=O)CSc1nccc(-c2ccccn2)n1)Nc1ccc(C(F)(F)F)cc1 [Example 153]
17,3.6,O=C(CSc1nccc(-c2ccccn2)n1)OCC1CCCC1 [Example 154]
18,1.98,CC1(COC(=O)CSc2nccc(-c3ccccn3)n2)COC1 [Example 158]
19,4,O=C(CSc1nccc(-c2ccccn2)n1)OCC1CCCCC1 [Example 159]
20,1.59,O=C(CSc1nccc(-c2ccccn2)n1)OCCN1CCNC1=S [Example 160]
21,1.16,CC(CN1CCOCC1)OC(=O)CSc1nccc(-c2ccccn2)n1 (stereo not shown) [Example 161]

row,chromatographic logP,SMILES
1,1.11,NC(=O)COC(=O)CSc1nccc(-c2ccccn2)n1 [Example 163]
2,2.05,COC(COC(=O)CSc1nccc(-c2ccccn2)n1)OC [Example 164]
3,1.64,O=C(CSc1nccc(-c2ccccn2)n1)OCCCN1CCCC1=O [Example 165]
4,3.48,C=CC(C)(C)COC(=O)CSc1nccc(-c2ccccn2)n1 [Example 168]
5,1.79,CCNC(=S)NCCOC(=O)CSc1nccc(-c2ccccn2)n1 [Example 172]
6,1.67,O=C(CSc1nccc(-c2ccccn2)n1)OC1CS(=O)(=O)C1 [Example 173]
7,1.64,COCNC(=O)OCCOC(=O)CSc1nccc(-c2ccccn2)n1 [Example 175]
8,1.93,Cc1cnn(CCOC(=O)CSc2nccc(-c3ccccn3)n2)n1 [Example 176]
9,2.2,CN(C)C(=O)SCCOC(=O)CSc1nccc(-c2ccccn2)n1 [Example 178]
10,2.29,COC(C)(C)COC(=O)CSc1nccc(-c2ccccn2)n1 [Example 179]
11,3.46,CSCC(C)(C)COC(=O)CSc1nccc(-c2ccccn2)n1 [Example 186]
12,1.97,CC(=O)NCC(C)OC(=O)CSc1nccc(-c2ccccn2)n1 (stereo not shown) [Example 188]
13,3.05,COCC(C)(C)COC(=O)CSc1nccc(-c2ccccn2)n1 [Example 190]
14,2.02,CC(C)/C=N/CCOC(=O)CSc1nccc(-c2ccccn2)n1 [Example 191]
15,1.63,O=C(CSc1nccc(-c2ccccn2)n1)OCC1COC(=O)O1 (stereo not shown) [Example 192]
16,2.46,CC1(C)OCC(CCOC(=O)CSc2nccc(-c3ccccn3)n2)O1 (stereo not shown) [Example 193]
17,2.95,CC(C)OC(=O)C(C)OC(=O)CSc1nccc(-c2ccccn2)n1 (stereo not shown) [Example 194]
18,2.66,CC(C)(F)COC(=O)CSc1nccc(-c2ccccn2)n1 [Example 196]
19,1.79,Cc1scnc1CCOC(=O)CSc1nccc(-c2ccccn2)n1 [Example 197]
20,2.2,CCC1(COC(=O)CSc2nccc(-c3ccccn3)n2)CCO1 (stereo not shown) [Example 198]
